The values that follow are results of earlier work, collected in patent US20050287096A1, “Method for improving the appearance of skin” (priority 2004, published 2005).

This series has as its system knee abrasions. The following applies: ointment containing 5% sucralfate, topical.

For sucralfate, the “stopping of fusion from the abrasions” value (knee abrasions caused by falls during a basketball game) is “fusion to be stopped after twenty four hours”. For the same substance, the “healing of the abrasions” value (period after fusion stopped) is recorded as “good healing occurring over a three day period”.
